Results as given in US20060233743A1, “Compositions and methods of therapy” (priority 2002, published 2006).

Tests used:
[1] = tested on: cells of the immune system; experiment: release of IL-10 from cells of the immune system in the presence of GMCSF; type: cell-based
PDE = conditions: cited from earlier work
U937 cells = experiment: Example 5: IL-10 and TNFα mRNA in U937 cells; type: cell-based, human; conditions: differentiation, PMA 2×10^−7 M
Procedure: U937 (human monocyte cell line) cells were grown in RPMI (PAA Laboratories) medium with 10% fetal calf serum added (PAA Laboratories). Cells were treated with prostaglandin E2 at 10^−6 Molar, Rolipram 10^−6 Molar, Forskolin 50×10^−6 Molar with or without GMCSF at 5 ng/ml for 48 hours. Cells were pelleted and the mRNA was extracted with Tri reagent (Sigma, Poole, UK). Total RNA was obtained by addition of chloroform and subsequent isopropanol precipitation. RNA was reverse transcribed with reverse transcriptase (Applied Biosystems) and random hexamers (Applied Biosystems). Probes and primers for amplification and detection of IL-10 were designed using Primer Express (Applied Biosystems) and are as follows:
As for Example 4 but mRNA for TNFα alpha is also included.
Data is shown as the ratio of IL-10 mRNA/TNFα mRNA. P═PMA=Phorbol myristoyl acetate; F=Fsk=Forskolin, g=GMCSF, C=vehicle control.

type IV PDE = type IV PDE inhibitor; cited from earlier work

Compound: 19-hydroxy PGE
- stimulation of IL-10 [1]: increased strikingly

Compound: CC(C)Cn1c(=O)n(C)c(=O)c2[nH]cnc21 [IBMX, 3-isobutyl-1-methylxanthine]
- IC50 (PDE; non-specific PDE inhibitor): 2 to 50 µM

Compound: CCCCC[C@H](O)/C=C/[C@H]1[C@H](O)CC(=O)[C@@H]1C/C=C\CCCC(=O)O [PGE, prostaglandin E2]
- stimulation of IL-10 [1]: increased strikingly

Compound: CCCCCCCCCCCCCC(=O)O[C@@H]1[C@@H](C)[C@@]2(O)[C@@H](C=C(CO)C[C@]3(O)C(=O)C(C)=C[C@@H]23)[C@@H]2C(C)(C)[C@]12OC(C)=O [PMA, Phorbol myristoyl acetate]
- IL-10 mRNA (U937 cells): increased
- TNFα mRNA (U937 cells; Forskolin 50×10^−6 Molar, GMCSF 5 ng/ml): also increased

Compound: CCCCOc1cc(CC2CNC(=O)N2)ccc1OC (centres unmarked) [Ro-20-1724, 4-[3-butoxy-4-methoxybenzyl]-2-imidazolidinone]
- IC50 (type IV PDE): 2000 nM

Compound: COc1ccc(C2CNC(=O)C2)cc1OC1CCCC1 (centres unmarked) [rolipram, 4-[3-cyclopentyloxy-4-methoxyphenyl]-2-pyrrolidinone]
- IC50 (type IV PDE): 800 nM

Compound: Cn1c(=O)c2[nH]cnc2n(C)c1=O [theophylline]
- times less effective than rolipram (PDE; non-selective inhibitor compared with rolipram): 30 times
